Here are results for 7 compounds from ChEMBL document CHEMBL1150976, “The selectivity of protein kinase inhibitors: a further update” (Biochem J, 2007).

In assay [1] the target is Rho-associated protein kinase 2 (Homo sapiens) (UniProt O75116). Nature of the assay: Percentage ROCK2 activity remaining in the presence of 0.1uM inhibitor.
Assay [2] concerns the target Calcium/calmodulin-dependent protein kinase kinase 2 (Homo sapiens) (UniProt Q96RR4). The experiment in a line: Percentage CaMKKbeta activity remaining in the presence of 0.1uM inhibitor.
Assay [3] deals with Ribosomal protein S6 kinase beta-1 (Homo sapiens, UniProt P23443). The experiment in a line: Percentage S6K1 activity remaining in the presence of 0.1uM inhibitor.
Assay [4] deals with Serine/threonine-protein kinase Nek6 (Homo sapiens) (UniProt Q9HC98). Nature of the assay: Percentage NEK6 activity remaining in the presence of 0.1uM inhibitor.
For assay [5], the target named is T1, 3-phosphoinositide-dependent protein kinase 1 (Homo sapiens) (UniProt O15530).
T1 sequence (whole entry): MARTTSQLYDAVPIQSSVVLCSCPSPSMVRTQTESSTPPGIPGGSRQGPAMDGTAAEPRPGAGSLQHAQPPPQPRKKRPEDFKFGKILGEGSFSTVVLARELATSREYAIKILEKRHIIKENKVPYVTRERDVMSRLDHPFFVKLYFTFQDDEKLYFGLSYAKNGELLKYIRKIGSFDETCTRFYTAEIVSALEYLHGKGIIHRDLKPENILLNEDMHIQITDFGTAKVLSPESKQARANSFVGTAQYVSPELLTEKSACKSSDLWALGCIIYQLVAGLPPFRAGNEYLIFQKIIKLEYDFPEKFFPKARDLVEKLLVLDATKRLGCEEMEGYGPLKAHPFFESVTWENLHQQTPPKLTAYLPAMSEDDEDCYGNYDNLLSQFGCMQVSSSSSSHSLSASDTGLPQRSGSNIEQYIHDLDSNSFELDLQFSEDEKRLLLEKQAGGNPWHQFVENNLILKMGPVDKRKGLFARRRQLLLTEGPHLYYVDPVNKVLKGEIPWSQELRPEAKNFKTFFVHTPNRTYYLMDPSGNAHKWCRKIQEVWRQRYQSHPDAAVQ
Nature of the assay: Percentage PDK1 activity remaining in the presence of 0.1uM inhibitor.

Assay [6] deals with T2, Mitogen-activated protein kinase 15 (Homo sapiens) (UniProt Q8TD08).
T2 sequence (whole entry): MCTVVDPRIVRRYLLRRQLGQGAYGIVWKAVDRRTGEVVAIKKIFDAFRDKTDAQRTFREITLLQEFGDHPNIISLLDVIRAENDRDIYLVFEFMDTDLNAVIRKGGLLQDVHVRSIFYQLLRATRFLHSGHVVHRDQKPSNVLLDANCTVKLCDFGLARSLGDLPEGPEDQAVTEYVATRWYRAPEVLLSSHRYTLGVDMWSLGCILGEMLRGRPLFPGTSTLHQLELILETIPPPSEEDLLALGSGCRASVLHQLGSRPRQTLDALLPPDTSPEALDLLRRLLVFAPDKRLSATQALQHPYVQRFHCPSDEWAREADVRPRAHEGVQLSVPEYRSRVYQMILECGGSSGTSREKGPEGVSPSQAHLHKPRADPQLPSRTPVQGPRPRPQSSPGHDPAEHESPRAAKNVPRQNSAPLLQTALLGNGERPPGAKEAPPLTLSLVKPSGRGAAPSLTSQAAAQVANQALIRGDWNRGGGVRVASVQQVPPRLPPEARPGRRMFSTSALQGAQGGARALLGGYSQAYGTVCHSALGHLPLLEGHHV
The experiment in a line: Percentage ERK8 activity remaining in the presence of 0.1uM inhibitor.

The target of assay [7] is MAP/microtubule affinity-regulating kinase 3 (Homo sapiens) (UniProt P27448). The experiment in a line: Percentage MARK3 activity remaining in the presence of 0.1uM inhibitor.
Assay [8] addresses Dual specificity mitogen-activated protein kinase kinase 1 (Homo sapiens) (UniProt Q02750). Nature of the assay: Percentage MKK1 activity remaining in the presence of 0.1uM inhibitor.
In assay [9] the target is Serine/threonine-protein kinase N2 (Homo sapiens) (UniProt Q16513). Nature of the assay: Percentage PRK2 activity remaining in the presence of 0.1uM inhibitor.
The target of assay [10] is MAP kinase-activated protein kinase 2 (Homo sapiens) (UniProt P49137). The experiment in a line: Percentage MAPKAPK2 activity remaining in the presence of 0.1uM inhibitor.
For assay [11], the species on record is Rattus norvegicus. Nature of the assay: Percentage AMPK activity remaining in the presence of 0.1uM inhibitor.
Assay [12] addresses Proto-oncogene tyrosine-protein kinase Src (Gallus gallus) (UniProt P00523). Nature of the assay: Percentage Src activity remaining in the presence of 0.1uM inhibitor.
The target in assay [13] is MAP kinase-interacting serine/threonine-protein kinase 2 (Homo sapiens) (UniProt Q9HBH9). The experiment in a line: Percentage MNK2 activity remaining in the presence of 0.1uM inhibitor.
The target of assay [14] is Serine/threonine-protein kinase PAK 4 (Homo sapiens, UniProt O96013). The experiment in a line: Percentage PAK4 activity remaining in the presence of 0.1uM inhibitor.
The target of assay [15] is Dual specificity tyrosine-phosphorylation-regulated kinase 1A (Homo sapiens) (UniProt Q13627). Nature of the assay: Percentage DYRK1A activity remaining in the presence of 0.1uM inhibitor.
Assay [16] concerns the target T3, Serine/threonine-protein kinase Nek2 (Homo sapiens) (UniProt P51955).
T3 sequence (whole entry): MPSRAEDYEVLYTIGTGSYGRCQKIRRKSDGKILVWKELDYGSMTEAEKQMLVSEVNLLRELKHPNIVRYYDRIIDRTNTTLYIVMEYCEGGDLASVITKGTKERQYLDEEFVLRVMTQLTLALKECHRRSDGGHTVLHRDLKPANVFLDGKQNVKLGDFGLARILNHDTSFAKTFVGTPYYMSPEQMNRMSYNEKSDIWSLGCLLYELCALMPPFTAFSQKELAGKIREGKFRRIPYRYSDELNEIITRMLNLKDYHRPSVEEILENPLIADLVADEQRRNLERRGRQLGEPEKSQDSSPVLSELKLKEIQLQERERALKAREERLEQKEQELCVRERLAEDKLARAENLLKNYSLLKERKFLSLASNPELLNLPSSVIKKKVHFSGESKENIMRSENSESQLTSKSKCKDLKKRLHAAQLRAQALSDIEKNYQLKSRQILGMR
Nature of the assay: Percentage NEK2a activity remaining in the presence of 0.1uM inhibitor.

The target in assay [17] is cAMP-dependent protein kinase catalytic subunit alpha (Homo sapiens, UniProt P17612). Nature of the assay: Percentage PKA activity remaining in the presence of 0.1uM inhibitor.
Assay [18] has as its target Calcium/calmodulin-dependent protein kinase type 1 (Homo sapiens) (UniProt Q14012). The experiment in a line: Percentage CaMK1 activity remaining in the presence of 0.1uM inhibitor.

Serine/threonine-protein kinase Nek6 (Homo sapiens), sequence (Q9HC98 whole entry): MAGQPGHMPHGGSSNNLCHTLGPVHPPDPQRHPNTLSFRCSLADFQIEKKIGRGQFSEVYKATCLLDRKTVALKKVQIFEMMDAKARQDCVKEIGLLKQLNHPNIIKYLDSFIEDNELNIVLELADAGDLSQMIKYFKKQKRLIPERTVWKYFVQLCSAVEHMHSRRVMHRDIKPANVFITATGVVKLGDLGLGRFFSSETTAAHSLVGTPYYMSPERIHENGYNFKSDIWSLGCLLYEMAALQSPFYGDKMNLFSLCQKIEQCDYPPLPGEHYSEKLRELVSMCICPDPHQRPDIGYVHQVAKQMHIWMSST
MAP kinase-interacting serine/threonine-protein kinase 2 (Homo sapiens), sequence (Q9HBH9 whole entry, looked up): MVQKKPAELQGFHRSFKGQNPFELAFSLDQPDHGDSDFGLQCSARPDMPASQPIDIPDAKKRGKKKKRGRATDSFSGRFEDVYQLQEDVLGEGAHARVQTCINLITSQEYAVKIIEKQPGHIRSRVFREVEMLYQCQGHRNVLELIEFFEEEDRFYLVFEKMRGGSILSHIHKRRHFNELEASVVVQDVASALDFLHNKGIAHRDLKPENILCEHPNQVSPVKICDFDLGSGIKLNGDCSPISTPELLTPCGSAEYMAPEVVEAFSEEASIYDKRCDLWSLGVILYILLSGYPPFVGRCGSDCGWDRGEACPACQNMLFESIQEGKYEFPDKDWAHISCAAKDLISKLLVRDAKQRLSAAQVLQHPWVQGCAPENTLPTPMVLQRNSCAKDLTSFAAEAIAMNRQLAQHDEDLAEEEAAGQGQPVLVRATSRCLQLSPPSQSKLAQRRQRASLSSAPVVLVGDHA
Serine/threonine-protein kinase PAK 4, sequence (O96013 whole entry, looked up): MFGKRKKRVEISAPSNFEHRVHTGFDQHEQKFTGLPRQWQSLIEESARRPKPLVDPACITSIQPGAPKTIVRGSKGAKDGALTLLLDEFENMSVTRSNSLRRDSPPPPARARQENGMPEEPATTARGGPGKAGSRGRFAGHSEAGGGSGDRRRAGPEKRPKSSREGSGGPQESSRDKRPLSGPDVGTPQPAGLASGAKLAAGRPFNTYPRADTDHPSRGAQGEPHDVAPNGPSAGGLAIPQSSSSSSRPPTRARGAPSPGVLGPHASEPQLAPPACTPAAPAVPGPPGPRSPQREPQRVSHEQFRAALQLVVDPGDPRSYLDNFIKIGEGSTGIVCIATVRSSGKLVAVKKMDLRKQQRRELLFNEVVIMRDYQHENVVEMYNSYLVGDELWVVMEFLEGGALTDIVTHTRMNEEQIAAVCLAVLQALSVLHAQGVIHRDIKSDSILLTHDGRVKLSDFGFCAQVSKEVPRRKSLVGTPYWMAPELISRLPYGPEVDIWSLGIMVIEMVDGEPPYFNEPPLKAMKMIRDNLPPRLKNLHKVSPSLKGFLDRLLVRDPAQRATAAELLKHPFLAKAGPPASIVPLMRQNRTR
MAP/microtubule affinity-regulating kinase 3 (Homo sapiens), sequence (P27448 whole entry, looked up): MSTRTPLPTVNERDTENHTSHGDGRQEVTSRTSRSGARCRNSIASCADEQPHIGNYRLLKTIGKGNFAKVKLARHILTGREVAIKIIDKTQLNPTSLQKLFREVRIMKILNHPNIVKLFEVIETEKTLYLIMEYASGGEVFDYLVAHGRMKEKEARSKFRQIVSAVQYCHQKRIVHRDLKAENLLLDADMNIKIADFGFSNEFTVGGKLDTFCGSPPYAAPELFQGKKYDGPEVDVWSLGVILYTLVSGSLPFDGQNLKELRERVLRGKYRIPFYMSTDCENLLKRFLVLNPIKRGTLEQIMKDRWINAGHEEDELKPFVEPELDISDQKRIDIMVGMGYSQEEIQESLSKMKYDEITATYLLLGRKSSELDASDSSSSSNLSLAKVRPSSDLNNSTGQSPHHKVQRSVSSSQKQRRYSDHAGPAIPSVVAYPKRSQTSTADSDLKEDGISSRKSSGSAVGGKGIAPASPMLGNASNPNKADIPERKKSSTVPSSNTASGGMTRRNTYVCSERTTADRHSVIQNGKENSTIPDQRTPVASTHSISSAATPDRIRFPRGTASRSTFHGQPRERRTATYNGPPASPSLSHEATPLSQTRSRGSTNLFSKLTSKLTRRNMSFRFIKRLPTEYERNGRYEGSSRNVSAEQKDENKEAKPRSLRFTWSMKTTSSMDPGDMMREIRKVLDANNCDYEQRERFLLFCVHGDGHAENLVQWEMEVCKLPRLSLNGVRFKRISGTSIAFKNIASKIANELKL
Calcium/calmodulin-dependent protein kinase type 1 (Homo sapiens), sequence (Q14012 whole entry, looked up): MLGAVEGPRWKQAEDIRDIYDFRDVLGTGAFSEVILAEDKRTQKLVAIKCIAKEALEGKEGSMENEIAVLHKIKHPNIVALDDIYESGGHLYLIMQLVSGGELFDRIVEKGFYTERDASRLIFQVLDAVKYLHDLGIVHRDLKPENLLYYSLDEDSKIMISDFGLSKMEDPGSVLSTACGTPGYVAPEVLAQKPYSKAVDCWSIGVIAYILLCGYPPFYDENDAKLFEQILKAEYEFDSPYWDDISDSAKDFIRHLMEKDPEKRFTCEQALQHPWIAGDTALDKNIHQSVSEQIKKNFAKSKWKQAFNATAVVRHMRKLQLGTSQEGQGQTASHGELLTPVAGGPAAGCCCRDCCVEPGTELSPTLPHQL
Calcium/calmodulin-dependent protein kinase kinase 2 (Homo sapiens), sequence (Q96RR4 2-588 limits assumed): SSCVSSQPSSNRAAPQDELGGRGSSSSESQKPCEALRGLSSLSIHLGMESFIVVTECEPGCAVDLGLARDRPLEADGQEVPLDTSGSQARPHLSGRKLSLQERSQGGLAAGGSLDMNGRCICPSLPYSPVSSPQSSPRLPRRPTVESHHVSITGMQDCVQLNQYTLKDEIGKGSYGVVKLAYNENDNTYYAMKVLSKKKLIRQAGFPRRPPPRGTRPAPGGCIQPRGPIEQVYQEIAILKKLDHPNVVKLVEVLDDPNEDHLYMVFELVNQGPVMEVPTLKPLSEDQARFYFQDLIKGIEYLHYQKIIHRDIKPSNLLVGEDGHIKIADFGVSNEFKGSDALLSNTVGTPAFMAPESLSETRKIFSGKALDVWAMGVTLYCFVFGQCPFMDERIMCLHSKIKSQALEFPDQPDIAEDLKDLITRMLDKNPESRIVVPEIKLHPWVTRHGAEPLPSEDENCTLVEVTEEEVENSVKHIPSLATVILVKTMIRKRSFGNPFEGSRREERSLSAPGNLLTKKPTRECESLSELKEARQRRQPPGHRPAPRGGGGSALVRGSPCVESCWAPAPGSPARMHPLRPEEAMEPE
Dual specificity mitogen-activated protein kinase kinase 1 (Homo sapiens), sequence (Q02750 whole entry): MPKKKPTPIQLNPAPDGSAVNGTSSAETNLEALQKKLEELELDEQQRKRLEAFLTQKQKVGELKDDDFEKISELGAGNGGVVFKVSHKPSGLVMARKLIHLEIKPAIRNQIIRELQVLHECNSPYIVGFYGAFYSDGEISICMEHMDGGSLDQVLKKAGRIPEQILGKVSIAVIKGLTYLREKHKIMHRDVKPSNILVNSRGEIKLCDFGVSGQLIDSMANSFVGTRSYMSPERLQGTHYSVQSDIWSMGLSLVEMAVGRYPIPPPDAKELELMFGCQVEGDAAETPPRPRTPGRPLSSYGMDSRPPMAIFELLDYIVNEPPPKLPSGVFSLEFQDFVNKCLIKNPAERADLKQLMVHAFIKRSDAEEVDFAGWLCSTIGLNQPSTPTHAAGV
Serine/threonine-protein kinase N2 (Homo sapiens), sequence (Q16513 whole entry, looked up): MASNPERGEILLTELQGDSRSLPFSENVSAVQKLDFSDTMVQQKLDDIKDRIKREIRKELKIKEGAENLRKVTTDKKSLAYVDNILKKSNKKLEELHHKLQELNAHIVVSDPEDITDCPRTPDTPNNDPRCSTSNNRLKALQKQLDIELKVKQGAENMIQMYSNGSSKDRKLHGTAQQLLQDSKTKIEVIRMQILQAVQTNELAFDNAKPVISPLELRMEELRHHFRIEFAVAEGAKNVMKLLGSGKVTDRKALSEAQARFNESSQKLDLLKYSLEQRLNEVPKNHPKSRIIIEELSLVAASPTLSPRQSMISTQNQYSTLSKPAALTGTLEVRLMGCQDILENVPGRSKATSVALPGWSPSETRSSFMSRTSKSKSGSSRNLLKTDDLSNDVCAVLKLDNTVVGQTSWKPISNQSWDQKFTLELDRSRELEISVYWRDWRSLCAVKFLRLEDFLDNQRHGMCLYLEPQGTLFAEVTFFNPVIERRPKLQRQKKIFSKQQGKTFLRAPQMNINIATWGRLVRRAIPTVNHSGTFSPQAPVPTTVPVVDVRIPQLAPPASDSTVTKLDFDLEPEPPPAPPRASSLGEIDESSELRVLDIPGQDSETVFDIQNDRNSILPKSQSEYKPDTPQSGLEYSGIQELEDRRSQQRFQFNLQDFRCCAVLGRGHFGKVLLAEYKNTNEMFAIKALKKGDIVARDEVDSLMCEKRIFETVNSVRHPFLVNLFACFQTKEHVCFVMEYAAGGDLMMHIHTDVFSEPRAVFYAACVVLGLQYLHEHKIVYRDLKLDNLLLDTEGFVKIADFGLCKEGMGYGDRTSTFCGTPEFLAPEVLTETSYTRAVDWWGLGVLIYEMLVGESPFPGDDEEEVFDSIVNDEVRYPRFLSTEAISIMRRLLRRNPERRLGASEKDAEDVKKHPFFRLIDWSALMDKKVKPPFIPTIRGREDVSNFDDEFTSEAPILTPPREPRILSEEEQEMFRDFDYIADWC
MAP kinase-activated protein kinase 2 (Homo sapiens), sequence (P49137 whole entry, looked up): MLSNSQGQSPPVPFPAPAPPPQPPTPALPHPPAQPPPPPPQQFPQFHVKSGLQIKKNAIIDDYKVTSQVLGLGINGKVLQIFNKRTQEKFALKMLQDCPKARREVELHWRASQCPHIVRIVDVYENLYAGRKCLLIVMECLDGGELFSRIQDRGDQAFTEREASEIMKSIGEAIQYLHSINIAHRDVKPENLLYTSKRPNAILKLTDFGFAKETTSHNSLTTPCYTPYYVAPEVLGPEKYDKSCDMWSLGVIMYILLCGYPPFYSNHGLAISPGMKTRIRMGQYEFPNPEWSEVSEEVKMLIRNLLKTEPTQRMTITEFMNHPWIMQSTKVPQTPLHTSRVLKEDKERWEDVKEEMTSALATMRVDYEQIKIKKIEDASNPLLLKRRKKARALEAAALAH

On to `CC(C)CCN1c2nc(Nc3cc(F)c(O)c(F)c3)ncc2N(C)C(=O)C1C` (stereo unspecified), for which the Activity in assay [1] amounted to 84%; in [2] it was 73%; in [3], 119%; in [4], 115%; in assay [5] it was 94%; in assay [6] it was 82%. Also, the Activity is 79% in assay [7]; 98% in assay [8]; 97% in assay [9]; 89% in [10]; 108% in assay [11]; 96% in assay [12]. Further, the Activity stood at 96% in [13]; 81% in assay [14]; 96% in [15]; 98% in assay [16]; 89% in assay [17]; 103% in assay [18].

`CC(C)[C@H](CO)Nc1nc(Nc2cccc(Cl)c2)c2ncn(C(C)C)c2n1` [PURVALANOLA]: the Activity in assay [1] was 93%; in assay [2], 60%; in assay [3], 87%; in assay [4] it was 91%; in [5], 79%; in [6], 70%. Moreover, the Activity is 89% in assay [7]; 81% in assay [9]; 106% in assay [10]; 89% in assay [11]; 14% in assay [12] (filed as antagonist); 98% in assay [13]. The Activity in assay [14] (filed as antagonist) is 43%; in assay [15], 88%; in assay [16], 95%; in [17], 79%; in assay [18] it was 99%.

`Cn1cc(C2=C(c3cn(CCCSC(=N)N)c4ccccc34)C(=O)NC2=O)c2ccccc21`: the Activity in assay [1] was 88%; in assay [2], 65%; in assay [3] (filed as antagonist), 20%; in assay [4] it was 97%; in assay [5] it was 62%; in assay [6], 51%. Further, the Activity in assay [7] is 77%; in [8], 87%; in assay [9] (filed as antagonist), 8%; in [10] it was 90%; in [11], 84%; in assay [12] it was 91%. For the same compound, the Activity was 103% in assay [13]; 75% in assay [14]; 31% in [15] (filed as antagonist); 84% in assay [16]; 51% in assay [17]; 91% in assay [18].

For `Cc1n[nH]c2ccc(-c3cncc(OC[C@@H](N)Cc4c[nH]c5ccccc45)c3)cc12`, the Activity in assay [1] (filed as antagonist) is 8%; in [3] (filed as antagonist) it was 32%; in [4], 95%; in assay [5], 79%; in assay [6] (filed as antagonist) it was 28%; in [7], 83%. Besides, the Activity in assay [8] was 67%; in assay [9] (filed as antagonist), 2%; in assay [10], 73%; in [11], 67%; in assay [12], 86%; in assay [13] it was 80%. For the same compound, the Activity in assay [14] was 90%; in assay [15] (filed as antagonist), 7%; in assay [16], 95%; in assay [17] (filed as antagonist), 3%; in [18], 77%.

With `O=C(NCCCNc1nc(Nc2cccc(NC(=O)N3CCCC3)c2)ncc1I)c1cccs1`, the Activity was 28% in assay [1] (filed as antagonist); 30% in assay [2] (filed as antagonist); 84% in assay [3]; 98% in [4]; 5% in assay [5] (filed as antagonist); 7% in [6] (filed as antagonist). Further, the Activity in assay [7] (filed as antagonist) is 3%; in assay [8] (filed as antagonist), 33%; in assay [9] (filed as antagonist), 43%; in [10], 108%; in assay [11] (filed as antagonist), 11%; in assay [12] it was 77%. Moreover, the Activity in [13] (filed as antagonist) is 19%; in assay [14], 71%; in assay [15], 83%; in [16], 95%; in assay [17] it was 72%; in assay [18], 71%.

As for `Cn1c2ccccc2c2c3c(c4c5ccccc5n(CCC#N)c4c21)CNC3=O`, the Activity in [2] (filed as antagonist) was 11%; in assay [3] (filed as antagonist) it was 12%; in assay [4], 96%; in assay [5] (filed as antagonist) it was 11%; in [6] (filed as antagonist) it was 38%; in assay [7] (filed as antagonist), 12%. Moreover, the Activity in assay [8] (filed as antagonist) is 34%; in assay [9] (filed as antagonist) it was 5%; in [10] it was 118%; in [12] it was 65%; in assay [13] (filed as antagonist) it was 30%; in assay [14] (filed as antagonist) it was 5%. For the same compound, the Activity was 30% in [15] (filed as antagonist), 87% in assay [16], 50% in assay [17] (filed as antagonist) and 98% in assay [18].

With `CN(C)C[C@@H]1CCn2cc(c3ccccc32)C2=C(C(=O)NC2=O)c2cn(c3ccccc23)CCO1`, the Activity in assay [1] was 94%; in assay [2], 53%; in [3], 52%; in [4], 93%; in assay [5] (filed as antagonist) it was 25%; in [6] it was 92%. In addition, the Activity was 73% in assay [7]; 42% in [8] (filed as antagonist); 38% in assay [9] (filed as antagonist); 114% in assay [10]; 71% in assay [11]; 97% in assay [12]. Further, the Activity in assay [13] is 101%; in assay [14], 75%; in assay [15] it was 74%; in [16] it was 91%; in assay [17], 59%.
